Measured values reported in paper PMC7503767, “Alkoxyamines Designed as Potential Drugs against Plasmodium and Schistosoma Parasites” (Molecules, 2020).
Where two headings read alike, the source gives them in different places. Marks after values point to notes of the source that are not given here.

Key:
[1] = system: P. falciparum chloroquine-resistant strain FcB1-Columbia; assay: Antiplasmodial screen at 10 µM and chemosensitivity assay (SYBR Green I), FcB1-Columbia; type: cell-based, Plasmodium falciparum; conditions: FcB1-Columbia strain, read-out: IC50 on P. falciparum
[2] = system: Adult S. mansoni; assay: In vitro antischistosomal activity on adult worms; type: cell-based, Schistosoma mansoni; conditions: for Mean (±SD) survival time – Adult S. mansoni / Time for the death of 100% worms: 100 µg/mL; for Mean (±SD) survival time – Adult S. mansoni: observation up to 8 h (Table S1)
Source text: The NMRI strain of Schistosoma mansoni was used for the experimentations. The parasite was maintained on an albino variety of Biomphalaria glabrata from Brazil (intermediate host) and in Golden Hamsters, Mesocricetus auratus (Janvier Labs, Le Genest-Saint-Isle, France). Detailed methods, for mollusk and hamster infections and for parasite recovery, were previously described.
Adult worms were recovered between 42 and 47 days after infection by hepatic perfusion technique. Twenty to fifty adult worms were disposed in 12-well Falcon® plate containing 2 mL of RPMI 1640 (supplemented with L-glutamine and Hepes 25 mM) and stored in an incubator chamber (37 °C; 5% CO2). Drug preparation started with dissolution of the drug in DMSO to give a 100 mg/mL stock solution. The dilution was complemented with Tween 80 and RPMI in order to obtain the following final ratio dilution: RPMI 1640/Tween 80/DMSO, 1000/0.95/3.8, v/v/v. The drug solution was added to Falcon plates that contained adult worms. The S. mansoni cultures were then incubated with each drug at a final concentration of 100 µg/mL. Positive control was carried out with a solution of praziquantel (Merck KGaA, Darmstadt, Germany) at a concentration of 100 µg/mL. Negative control was carried out with the same RPMI 1640/Tween 80/DMSO solution, but without any drug. Each test was performed in duplicate. Every hour, moving worms were counted in order to define the percentage of survivors. Parasites showing no body contractions during a 30 s observation were considered as dead. Observations were extended to 8 h. Mean survival times (± standard deviation) were calculated for each drug using Kaplan–Meier survival analyses.

[3] = Homolysis of the NO–C bond measured by EPR
Method: Homolysis rate constants kd’ were measured by EPR and estimated using Equation (1) as reported many times in the literature. Further, Ea and kd were estimated using Equation (2). (1) ln([nitroxide]∞−[nitroxide]t/[nitroxide]∞)=−kd·t (2) Ea=−RT ln([…] kd′ )

[4] = adult S. mansoni, observation up to 8 h

| Compound | Mean (±SD) survival time – Adult S. mansoni [2] | Time for the death of 100% worms [2, 4] | also measured |
| --- | --- | --- | --- |
| CCOP(=O)(OCC)C(N(OC(C)c1ccccn1)C(C)(C)C)C(C)(C)C (centres unmarked) [(RR/SS)-1c] | – | – | IC50 [1]: > 10 µM |
| CCOP(=O)(OCC)C(N(OC(C)c1ccc(C)cc1)C(C)(C)C)C(C)(C)C (centres unmarked) [(RR/SS)-1s] | > 8 h | > 8 h | – |
| CCOP(=O)(OCC)C(N(OC(C)c1cn(C)c[n+]1C)C(C)(C)C)C(C)(C)C.[I-] (centres unmarked) [(RS/SR)-1r] | – | 6 h | – |
| CCOP(=O)(OCC)C(N(OC(C)c1ccc(C)cc1)C(C)(C)C)C(C)(C)C (centres unmarked) [(RS/SR)-1s] | 3.3 ± 0.1 h | 4 h | – |
| CCOP(=O)(OCC)C(N(OC(C)c1ccccn1)C(C)(C)CO)C(C)(C)C (centres unmarked) [(RS/SR)-2c] | – | – | IC50 [1]: > 10 µM |
| CCOP(=O)(OCC)C(N(OC(C)c1ccccc1)C(C)(C)C(=O)OC)C(C)(C)C (centres unmarked) [(RS/SR)-5z] | > 8 h | > 8 h | – |
| CC(ON(C(C)(C)C)C(C)(C)C)c1ccncc1 (centres unmarked) [14a] | 2.5 ± 0.10 h | 3 h | – |
| CCOP(=O)(OCC)C(N(OC(C)c1cc(-c2ccccn2)nc(-c2ccccn2)c1)C(C)(C)CO[Si](C)(C)C(C)(C)C)C(C)(C)C (centres unmarked) [(RS/SR)-6F, Diethyl(1-((1-([2,2′:6′,2′′-terpyridin]-4′-yl)ethoxy)(1-((tert-butyldimethylsilyl)oxy)-2-methylpropan-2-yl)amino)-2,2-dimethylpropyl)phosphonate] | – | – | activation energy Ea ([3]; t-BuPh): 121.7 kJ/mol; half-lifetime t1/2 at 37 °C ([3]; t-BuPh): 10 days; re-estimated homolysis rate constant kd at 120 °C ([3]; t-BuPh): 16.3 10^−3 s^−1; homolysis rate constant kd′ ([3]; t-BuPh, 81 °C): 2.7 10^−4s^−1 |
| CCOP(=O)(OCC)C(N(OC(C)c1ccccc1)C(C)(C)C(=O)O)C(C)(C)C (centres unmarked) [(RS/SR)-4z] | > 8 h | > 8 h | – |
| CCOP(=O)(OCC)C(N(OC(C)c1cn(C)cn1)C(C)(C)C)C(C)(C)C (centres unmarked) [(RR/SS)-1q] | 3.3 ± 0.9 h | 6 h | – |
| CC(ON1C(C)(C)CCCC1(C)C)c1ccccc1 (centres unmarked) [9z] | > 8 h | > 8 h | – |
| CCOP(=O)(OCC)C(N(OC(C)c1cccnc1)C(C)(C)C)C(C)(C)C (centres unmarked) [(RS/SR)-1b] | – | – | IC50 ([1]; listed as (RS/SR)-1B): > 10 µM |
| CCOP(=O)(OCC)[C@@H](N(O[C@H](C)n1cc[n+](C)c1)C(C)(C)C)C(C)(C)C.Cc1ccc(S(=O)(=O)[O-])cc1 (relative stereo) [(RR/SS)-1n] | > 8 h | > 8 h | – |
| O=C(C1CCCCC1)N1CC(=O)N2CCc3ccccc3C2C1 (centres unmarked) [Praziquantel, praziquantel, reference compound] | 1.0 ± 0.05 h | 1 h | S. mansoni Mean Survival Time ([2]; adult S. mansoni, single dose 100 µg/mL, observation up to 8 h): 1.0 ± 0.05 h |
| CCOP(=O)(OCC)C(N(OC(C)c1cc(-c2ccccc2)cc(-c2ccccc2)c1)C(C)(C)CO[Si](C)(C)C(C)(C)C)C(C)(C)C (centres unmarked) [(RS/SR)-6G, Diethyl(1-((1-([1,1′:3′,1′′-terphenyl]-5′-yl)ethoxy)(1-((tert-butyldimethylsilyl)oxy)-2-methylpropan-2-yl)amino)-2,2-dimethylpropyl)phosphonate] | – | – | activation energy Ea ([3]; t-BuPh): 124.7 kJ/mol; re-estimated homolysis rate constant kd at 120 °C ([3]; t-BuPh): 6.50 10^−3 s^−1; homolysis rate constant kd′ ([3]; t-BuPh, 92 °C): 3.5 10^−4s^−1 |
| CCOP(=O)(OCC)C(N(OC(C)c1cc(-c2ccccc2)cc(-c2ccccc2)c1)C(C)(C)CO)C(C)(C)C (centres unmarked) [(RS/SR)-2G, Diethyl(1-((1-([1,1′:3′,1′′-terphenyl]-5′-yl)ethoxy)(1-hydroxy-2-methylpropan-2-yl)amino)-2,2-dimethylpropyl)phosphonate] | > 8 h | > 8 h | activation energy Ea ([3]; MeOH/water 2:1 pH = 7.0): 122.1 kJ/mol; half-lifetime t1/2 at 37 °C ([3]; MeOH/water 2:1 pH = 7.0): 12.7 days; re-estimated homolysis rate constant kd at 120 °C ([3]; MeOH/water 2:1 pH = 7.0): 14.4 10^−3 s^−1; homolysis rate constant kd′ ([3]; MeOH/water 2:1 pH = 7.0, 81 °C): 2.3 10^−4s^−1; activation energy Ea ([3]; t-BuPh): 120.8 kJ/mol; half-lifetime t1/2 at 37 °C ([3]; t-BuPh): 7.5 days; re-estimated homolysis rate constant kd at 120 °C ([3]; t-BuPh): 21.6 10^−3 s^−1; homolysis rate constant kd′ ([3]; t-BuPh, 81 °C): 3.7 10^−4s^−1 |
| CC(ON1C(C)(C)CCCC1(C)C)c1cccnc1 (centres unmarked) [9b] | – | 3 h | – |
| CCOP(=O)(OCC)C(N(OC(C)c1cccnc1)C(C)(C)CO)C(C)(C)C (centres unmarked) [2b] | > 8 h | > 8 h | – |
| CCOP(=O)(OCC)C(N(OC(C)c1cc(-c2ccccc2)cc(-c2ccccc2)c1)C(C)(C)CO[Si](C)(C)C(C)(C)C)C(C)(C)C (centres unmarked) [(RR/SS)-6G, Diethyl(1-((1-([1,1′:3′,1′′-terphenyl]-5′-yl)ethoxy)(1-((tert-butyldimethylsilyl)oxy)-2-methylpropan-2-yl)amino)-2,2-dimethylpropyl)phosphonate] | – | – | half-life ([3]; half-lifetime t1/2 at 37 °C, t-BuPh): 33.4 days; activation energy Ea ([3]; t-BuPh): 125.5 kJ/mol; re-estimated homolysis rate constant kd at 120 °C ([3]; t-BuPh): 5.10 10^−3 s^−1; homolysis rate constant kd′ ([3]; t-BuPh, 92 °C): 2.7 10^−4s^−1 |
| CCOP(=O)(OCC)C(N(OC(C)c1cn(C)cn1)C(C)(C)C)C(C)(C)C (centres unmarked) [(RS/SR)-1q] | 1.3 ± 0.2 h | 2 h | – |
| CC(ON1C(C)(C)CCCC1(C)C)c1cc(-c2ccccn2)nc(-c2ccccn2)c1 (centres unmarked) [9F] | – | – | activation energy Ea ([3]; MeOH/water 1:1 pH = 7.4): 131.9 ^k kJ/mol; re-estimated homolysis rate constant kd at 120 °C ([3]; MeOH/water 1:1 pH = 7.4): 0.7 ^k 10^−3 s^−1; half-lifetime t1/2 at 37 °C ([3]; MeOH/water 1:1 pH = 7.4 (aqueous medium)): 385 ^k day; homolysis rate constant kd′ ([3]; MeOH/water 1:1 pH = 7.4, 90 °C): 0.25 ^k 10^−4s^−1; activation energy Ea ([3]; t-BuPh): 131.0 ^k kJ/mol; half-lifetime t1/2 at 37 °C ([3]; t-BuPh): 385 ^k day; re-estimated homolysis rate constant kd at 120 °C ([3]; t-BuPh): 0.95 ^k 10^−3 s^−1; homolysis rate constant kd′ ([3]; t-BuPh, 111 °C): 3.7 ^k 10^−4s^−1 |
| CCOP(=O)(OCC)C(N(OC(C)n1cc[n+](C)c1)C(C)(C)C)C(C)(C)C.Cc1ccc(S(=O)(=O)[O-])cc1 (centres unmarked) [(RS/SR)-1n] | > 8 h | > 8 h | – |
| CC(ON1C(C)(C)CC(O)CC1(C)C)c1ccccc1 (centres unmarked) [8z] | 1.9 ± 0.1 h | 2 h | – |
| 4-hydroxy-tetramethylpiperidine-N-oxyl [compound 8] | > 8 h | > 8 h | – |
| CCOP(=O)(OCC)C(N(OC(C)c1ccncc1)C(C)(C)CO)C(C)(C)C (centres unmarked) [2a] | > 8 h | > 8 h | – |
| CC(ON1C(C)(C)CC(O)CC1(C)C)c1ccncc1 (centres unmarked) [8a] | > 8 h | > 8 h | – |
| CC(ON1C(C)(C)CC(O)CC1(C)C)c1cccnc1 (centres unmarked) [8b] | > 8 h | > 8 h | – |
| CCOP(=O)(OCC)C(N(OC(C)c1cc(-c2ccccn2)nc(-c2ccccn2)c1)C(C)(C)CO[Si](C)(C)C(C)(C)C)C(C)(C)C (centres unmarked) [(RR/SS)-6F, Diethyl(1-((1-([2,2′:6′,2′′-terpyridin]-4′-yl)ethoxy)(1-((tert-butyldimethylsilyl)oxy)-2-methylpropan-2-yl)amino)-2,2-dimethylpropyl)phosphonate] | – | – | activation energy Ea ([3]; t-BuPh): 123.8 kJ/mol; half-lifetime t1/2 at 37 °C ([3]; t-BuPh): 24 days; re-estimated homolysis rate constant kd at 120 °C ([3]; t-BuPh): 8.5 10^−3 s^−1; homolysis rate constant kd′ ([3]; t-BuPh, 81 °C): 1.4 10^−4s^−1 |
| CCOP(=O)(OCC)C(N(OC(C)c1cn(C)c[n+]1C)C(C)(C)C)C(C)(C)C.[I-] (centres unmarked) [(RR/SS)-1r] | – | 4 h | – |
